Two molecules from ChEMBL document CHEMBL1221195, “Post-translational enzyme activation in an animal via optimized conditional protein splicing” (2007) can be followed below.

Assay [1] is described as follows: Induction of luciferase protein trans-splicing in Drosophila melanogaster S2 cells transfected with N-luc and C-luc assessed as increase in luciferase activity at 100 nM after 4 hrs at 28 degC relative to control. The class given is functional.
Assay [2] relates to Drosophila melanogaster. The assay can be described thus: Activation of luciferase in Drosophila melanogaster containing genomically integrated luciferase CPS at 100 uM. The class given is functional, organism-based.
Assay [3] in a line: Induction of luciferase protein trans-splicing in Drosophila melanogaster S2 cells transfected with N-luc and C-luc and 2 copies of FRB assessed as increase in luciferase activity at 100 nM after 4 hrs relative to control. The class given is functional.
Assay [4] in a line: Induction of luciferase protein trans-splicing in Drosophila melanogaster S2 cells transfected with N-luc and C-luc assessed as increase in luciferase activity at 100 nM after 4 hrs at 21 degC relative to control. The class given is functional.
Assay [5] concerns S2. The assay can be described thus: Induction of luciferase protein trans-splicing in Drosophila melanogaster S2 cells transfected with N-luc and C-luc assessed as increase in luciferase activity after 4 hrs by Western blot analysis. The class given is functional, cell-based. In general terms: Immunoblotting shows a protein as a band on a membrane.
Assay [6] can be described thus: Induction of luciferase protein trans-splicing in Drosophila melanogaster S2 cells transfected with N-luc and C-luc and FRB assessed as increase in luciferase activity at 100 nM after 4 hrs relative to control. The class given is functional.
Assay [7] concerns S2. Description: Induction of luciferase protein trans-splicing in Drosophila melanogaster S2 cells transfected with N-luc and C-lucFRB2 assessed as increase in luciferase activity at 100 nM after 4 hrs. The class given is functional, cell-based. Conditions: TDE = time-dependent effect.
For assay [8], the system named is S2. Description: Induction of luciferase protein trans-splicing in Drosophila melanogaster S2 cells transfected with N-luc and C-luc assessed as increase in luciferase activity at 100 nM after 4 hrs by Western blot analysis. The class given is functional, cell-based.
Assay [9] deals with Drosophila melanogaster. Description: Activation of luciferase in Drosophila melanogaster containing genomically integrated luciferase CPS at 100 uM by Western blot method. It is filed as functional, organism-based.
In assay [10] the test system is S2. Description: Induction of luciferase protein trans-splicing in Drosophila melanogaster S2 cells transfected with N-luc and C-luc assessed as increase in luciferase activity at 100 nM after 4 hrs at 25 degC. The class given is functional, cell-based.
The subject of assay [11] is S2. The assay can be described thus: Induction of luciferase protein trans-splicing in Drosophila melanogaster S2 cells transfected with N-luc and C-lucFRB2 assessed as increase in luciferase activity pretreated with ascomycin for 15 mins measured at 100 nM after 4 hrs. The class given is functional, cell-based.
Assay [12] relates to S2. Description: Induction of luciferase protein trans-splicing in Drosophila melanogaster S2 cells transfected with N-luc C1A mutant and C-luc N45A mutant assessed as increase in luciferase activity at 100 nM after 4 hrs by Western blot analysis. It is filed as functional, cell-based.
Assay [13] concerns S2. Description: Induction of luciferase protein trans-splicing in Drosophila melanogaster S2 cells transfected with N-luc and C-lucFRB2 assessed as increase in luciferase activity pretreated with ascomycin for 60 mins measured at 100 nM after 4 hrs. It is filed as functional, cell-based.
A short description of assay [14]: Induction of luciferase protein trans-splicing in Drosophila melanogaster S2 cells transfected with N-luc and C-luc and 3 copies of FRB assessed as increase in luciferase activity at 100 nM after 4 hrs relative to control. It is filed as functional.

Molecules are shown by their SMILES. Activity calls are given as the source filed them. The rule behind the calls is not given here.

As for `CO[C@H]1C[C@@H]2CC[C@@H](C)[C@@](O)(O2)C(=O)C(=O)N2CCCC[C@H]2C(=O)O[C@H]([C@H](C)C[C@@H]2CC[C@@H](O)[C@H](OC)C2)CC(=O)[C@H](C)/C=C(\C)[C@@H](O)[C@@H](OC)C(=O)[C@H](C)C[C@H](C)/C=C/C=C/C=C/1C` [SIROLIMUS], the Ratio in assay [1] is reported as 22; in [3], 50; in assay [4], 6; in assay [6], 15; in assay [14], 75. For the same molecule, the outcome with Drosophila melanogaster [2], with S2 [8], in the assay with Drosophila melanogaster [9] and in the assay with S2 [10] was Active. In addition, the Activity entry with S2 [5] is “Dose-dependent effect”; with S2 [7], “tde”. Moreover, the result in the assay on S2 [11], with S2 [12] and in the assay with S2 [13] was inactive.

`CO[C@H]1[C@@H](O)[C@H](C)C[C@H](C)/C=C/C=C/C=C(\C)[C@@H](c2c[nH]c3c(C)cccc23)C[C@@H]2CC[C@@H](C)[C@@](O)(O2)C(=O)C(=O)N2CCCC[C@H]2C(=O)O[C@H]([C@H](C)C[C@@H]2CC[C@@H](O)[C@H](OC)C2)C[C@H](O)[C@H](C)/C=C(\C)[C@H]1O`: the outcome with S2 [8] was inactive.
